From ChEMBL document CHEMBL1126970, “Development of 1,4-benzodiazepine cholecystokinin type B antagonists” (J Med Chem, 1993) come the findings set out here.

For experiment [1], the target named is T1, Cholecystokinin receptor type A (Rattus norvegicus, UniProt P30551).
T1 sequence (P30551 whole entry): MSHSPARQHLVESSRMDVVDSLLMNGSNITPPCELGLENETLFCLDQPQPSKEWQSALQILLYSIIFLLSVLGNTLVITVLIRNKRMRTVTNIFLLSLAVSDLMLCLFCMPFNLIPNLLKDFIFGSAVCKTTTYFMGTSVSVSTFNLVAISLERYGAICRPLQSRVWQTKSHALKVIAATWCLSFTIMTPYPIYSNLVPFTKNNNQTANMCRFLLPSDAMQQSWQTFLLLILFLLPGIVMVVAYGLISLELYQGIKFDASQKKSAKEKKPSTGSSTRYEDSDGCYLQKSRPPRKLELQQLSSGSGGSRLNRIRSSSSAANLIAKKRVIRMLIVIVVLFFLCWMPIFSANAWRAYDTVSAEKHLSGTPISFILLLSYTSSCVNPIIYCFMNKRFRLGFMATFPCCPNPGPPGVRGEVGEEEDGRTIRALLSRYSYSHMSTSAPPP
Briefly: Inhibition of binding of [125I]CCK-8 to cholecystokinin type A receptor in rat pancreatic tissue.

Experiment [2] is filed under the species Cavia porcellus. Briefly: Selectivity ratio between CCK-B and CCK-A receptor. Also on record: reference not given here.

By IC50 is commonly meant the concentration needed to halve the response being measured. `Cc1cc(C)cc(NC(=O)NC2N=C(c3ccccc3)c3ccccc3N(C)C2=O)c1` (centres undefined) showed an IC50 in experiment [1] of 720 nM. In addition, in experiment [2], the Selectivity ratio was 2.7. Regarding `COC(=O)Cc1cccc(NC(=O)NC2N=C(c3ccccc3)c3ccccc3N(C)C2=O)c1` (centres undefined), the IC50 in experiment [1] stood at 2100 nM. In addition, the Selectivity ratio in experiment [2] amounted to 64.

`CN1C(=O)C(NC(=O)Nc2ccc3ccccc3n2)N=C(c2ccccc2)c2ccccc21` (centres undefined): the 50% inhibitory concentration (IC50) in experiment [1] worked out at 180 nM. Also, the Selectivity ratio in experiment [2] is 7.

In the case of `CN1C(=O)C(NC(=O)Nc2ccc3c(c2)CCC3)N=C(c2ccccc2)c2ccccc21` (centres undefined), the IC50 in experiment [1] is 900 nM. For the same compound, the Selectivity ratio in experiment [2] was 333. `CN1C(=O)C(NC(=O)Nc2cccc(C#N)c2)N=C(c2ccccc2)c2ccccc21` (centres undefined) gave an IC50 in experiment [1] of 3100 nM. For the same compound, the Selectivity ratio in experiment [2] turned out to be 115.

Compound `CN1C(=O)C(NC(=O)Nc2cccc(CC(=O)O)c2)N=C(c2ccccc2)c2ccccc21` (centres undefined) had a concentration for half-maximal inhibition (IC50) in experiment [1] of 61 nM. Also, in experiment [2], the Selectivity ratio is 12. For `CN1C(=O)[C@H](NC(=O)Nc2ccc(Cl)cc2)N=C(c2ccccc2)c2ccccc21`, the IC50 in experiment [1] worked out at 2200 nM. Also, the Selectivity ratio in experiment [2] stood at 112. On the same counts, the results for `O=C(Nc1ccc(Cl)cc1)N[C@H]1N=C(c2ccccc2)c2ccccc2N(CC(=O)N2CCCC2)C1=O` are 2500 nM and 192. In experiment [1], `O=C(Nc1ccc(Cl)cc1)N[C@@H]1N=C(c2ccccc2)c2ccccc2N(CC(=O)N2CCCC2)C1=O` yielded an IC50 of 900 nM. Further, the Selectivity ratio in experiment [2] came to 643. `CN1C(=O)[C@@H](NC(=O)Nc2ccccc2Cl)N=C(c2ccccc2)c2ccccc21` came in with an IC50 in experiment [1] of 0.26 nM. Also, the Selectivity ratio in experiment [2] was < 0.01. Regarding `Cc1cccc(NC(=O)N[C@@H]2N=C(c3ccccc3)c3ccccc3NC2=O)c1`, in experiment [1], the IC50 was 3800 nM. Besides, the Selectivity ratio in experiment [2] stood at 95. For the compound `CN1C(=O)[C@H](NC(=O)Nc2cccc(N)c2)N=C(c2ccccc2)c2ccccc21`, in experiment [1], the IC50 is 4330 nM. Moreover, the Selectivity ratio in experiment [2] was determined as 131. `CC(=O)Oc1cccc(NC(=O)N[C@@H]2N=C(c3ccccc3)c3ccccc3N(C)C2=O)c1` gave an IC50 in experiment [1] of 6600 nM. The Selectivity ratio in experiment [2] was found to be 13.

`CN1C(=O)[C@H](NC(=O)NCc2cccc(O)c2)N=C(c2ccccc2)c2ccccc21` registered an IC50 in experiment [1] of 21 nM. Besides, the Selectivity ratio in experiment [2] was found to be 1.

In the case of `C=Cc1cccc(NC(=O)N[C@@H]2N=C(c3ccccc3)c3ccccc3N(C)C2=O)c1`, in experiment [1], the IC50 is 1670 nM. Further, in experiment [2], the Selectivity ratio was determined as 48. `CN1C(=O)[C@H](NC(=O)Nc2cccc(O)c2)N=C(c2ccccc2)c2ccccc21` showed an IC50 in experiment [1] of 60 nM. For the same compound, the Selectivity ratio in experiment [2] turned out to be 1. The compound `CN1C(=O)[C@H](NC(=O)Nc2cccc(CN)c2)N=C(c2ccccc2)c2ccccc21` showed an IC50 in experiment [1] of 160 nM. Further, the Selectivity ratio in experiment [2] was determined as 0.22. In experiment [1], `CC(=O)c1cccc(NC(=O)NC2N=C(c3ccccc3)c3ccccc3N(C)C2=O)c1` (centres undefined) registered an IC50 of 1300 nM. Also, the Selectivity ratio in experiment [2] came to 361. `CN1C(=O)C(NC(=O)Nc2cccc(CNC(=O)OC(C)(C)C)c2)N=C(c2ccccc2)c2ccccc21` (centres undefined): the IC50 in experiment [1] was 200 nM. Besides, in experiment [2], the Selectivity ratio was 1. In the same order, the values of `COc1ccc(NC(=O)NC2N=C(c3ccccc3)c3ccccc3N(C)C2=O)cn1` (centres undefined) are 2900 nM and 6.3.

Compound `CN1C(=O)[C@@H](NC(=O)Nc2ccc(Cl)cc2)N=C(c2ccccc2)c2ccccc21` returned an IC50 in experiment [1] of 110 nM. Moreover, in experiment [2], the Selectivity ratio is 0.1. `CN1C(=O)C(NC(=O)NCc2cccc(C(C)(C)O)c2)N=C(c2ccccc2)c2ccccc21` (centres undefined) displayed an IC50 in experiment [1] of 406 nM. In addition, the Selectivity ratio in experiment [2] is 69. `C#Cc1cccc(NC(=O)NC2N=C(c3ccccc3)c3ccccc3N(C)C2=O)c1` (centres undefined) returned an IC50 in experiment [1] of 402 nM. Also, the Selectivity ratio in experiment [2] was 18. `CN1C(=O)[C@H](NC(=O)Nc2cccc(I)c2)N=C(c2ccccc2)c2ccccc21` came in with a 50% inhibitory concentration (IC50) in experiment [1] of 800 nM. Further, the Selectivity ratio in experiment [2] was found to be 116. As to `Cc1cccc(NC(=O)N[C@H]2N=C(c3ccccc3)c3ccccc3N(C)C2=O)c1`, the IC50 in experiment [1] was determined as 4.7 nM. `Cc1cccc(NC(=O)NC2N=C(c3ccccn3)c3ccccc3N(C)C2=O)c1` (centres undefined): the half-maximal inhibitory concentration (IC50) in experiment [1] came out at 65 nM. Also, the Selectivity ratio in experiment [2] turned out to be 1. As for `COC(=O)c1cccc(NC(=O)N[C@@H]2N=C(c3ccccc3)c3ccccc3N(C)C2=O)c1`, in experiment [1], the IC50 was found to be 1200 nM. In addition, the Selectivity ratio in experiment [2] was determined as 150. In the case of `CN1C(=O)C(NC(=O)Nc2ccc(F)cc2)N=C(c2ccccc2)c2ccccc21` (centres undefined), the Selectivity ratio in experiment [2] is 0.7. As to `CN1C(=O)[C@H](NC(=O)Nc2cccc(Br)c2)N=C(c2ccccc2)c2ccccc21`, in experiment [2], the Selectivity ratio stood at 221. Take `CN1C(=O)[C@H](NC(=O)Nc2cccc(Cl)c2)N=C(c2ccccc2)c2ccccc21`: the Selectivity ratio in experiment [2] is 39. As for `CN1C(=O)[C@H](NC(=O)c2ccc(C(F)(F)F)cc2)N=C(c2ccccc2)c2ccccc21`, the Selectivity ratio in experiment [2] was 35. As for `COc1cccc(NC(=O)N[C@@H]2N=C(c3ccccc3)c3ccccc3N(C)C2=O)c1`, the Selectivity ratio in experiment [2] is 272. The same measure, in the same setting: the figure for `COc1cccc(NC(=O)N[C@H]2N=C(c3ccccc3)c3ccccc3N(C)C2=O)c1` is < 0.01.

In experiment [1], `O=C(Nc1ccc(Cl)cc1)NC1N=C(c2ccccc2)c2ccccc2N(Cc2nnn[nH]2)C1=O` (racemic) came in with an IC50 of 2100 nM. On the same count and under the same terms, under `CN1C(=O)C(NC(=O)Nc2ccc(C(=O)O)cc2)N=C(c2ccccc2)c2ccccc21` (racemic) stands > 10000 nM.

Consider `CCN(CC)C(=O)CN1C(=O)C(NC(=O)Nc2ccc(Cl)cc2)N=C(c2ccccc2)c2ccccc21` (racemic), for which the Selectivity ratio in experiment [2] was determined as 667. As to `CCNC(=O)CN1C(=O)C(NC(=O)Nc2ccc(Cl)cc2)N=C(c2ccccc2)c2ccccc21` (racemic), the Selectivity ratio in experiment [2] is 191.

Regarding `CCOC(=O)CCN1C(=O)C(NC(=O)Nc2ccc(Cl)cc2)N=C(c2ccccc2)c2ccccc21` (racemic), the Selectivity ratio in experiment [2] amounted to 204. Regarding `CCOC(=O)CN1C(=O)C(NC(=O)Nc2ccc(Cl)cc2)N=C(c2ccccc2)c2ccccc21` (racemic), the Selectivity ratio in experiment [2] was 370. The same measure, in the same setting: the figure for `CCOC(=O)CN1C(=O)C(NC(=O)c2ccccc2Cl)N=C(c2ccccc2F)c2ccccc21` (racemic) is > 9; for `CN1C(=O)C(NC(=O)NC(C)(C)C)N=C(c2ccccc2)c2ccccc21` (racemic) it is 0.2; for `CN1C(=O)C(NC(=O)NC2CCCCC2)N=C(c2ccccc2)c2ccccc21` (racemic) it is 0.8. Regarding `CN1C(=O)C(NC(=O)NCc2ccccc2)N=C(c2ccccc2)c2ccccc21` (racemic), in experiment [2], the Selectivity ratio was 0.6. Same read-out and setting: the figure for `CN1C(=O)C(NC(=O)Nc2ccc(Br)cc2)N=C(c2ccccc2)c2ccccc21` (racemic) is 2.7; for `CN1C(=O)C(NC(=O)Nc2ccc(Cl)c(Cl)c2)N=C(c2ccccc2)c2ccccc21` (racemic) it is 0.4. On to `CN1C(=O)C(NC(=O)Nc2ccc(Cl)cc2Cl)N=C(c2ccccc2)c2ccccc21` (racemic), for which the Selectivity ratio in experiment [2] stood at 0.01. As to `CN1C(=O)C(NC(=O)Nc2ccc([N+](=O)[O-])cc2)N=C(c2ccccc2)c2ccccc21` (racemic), the Selectivity ratio in experiment [2] worked out at 4.5. For the compound `CN1C(=O)C(NC(=O)Nc2cccc(Br)c2)N=C(c2ccccc2)c2ccccc21` (racemic), the Selectivity ratio in experiment [2] is 1. Same read-out and setting: under `CN1C(=O)C(NC(=O)Nc2cccc(Cl)c2)N=C(c2ccccc2)c2ccccc21` (racemic) stands 1; under `CN1C(=O)C(NC(=O)Nc2cccc(F)c2)N=C(c2ccccc2)c2ccccc21` (racemic), 0.2; under `CN1C(=O)C(NC(=O)Nc2cccc([N+](=O)[O-])c2)N=C(c2ccccc2)c2ccccc21` (racemic), 3.

`CN1C(=O)C(NC(=O)Nc2ccccc2)N=C(c2ccccc2)c2ccccc21` (racemic): in experiment [2], the Selectivity ratio amounted to 0.26. As to `CN1C(=O)C(NC(=O)Nc2ccccc2[N+](=O)[O-])N=C(c2ccccc2)c2ccccc21` (racemic), the Selectivity ratio in experiment [2] is < 0.01.

Regarding `CN1CCN(C(=O)CN2C(=O)C(NC(=O)Nc3ccc(Cl)cc3)N=C(c3ccccc3)c3ccccc32)CC1` (racemic), the Selectivity ratio in experiment [2] was 1500. Consider `COc1cc(NC(=O)NC2N=C(c3ccccc3)c3ccccc3N(C)C2=O)cc(OC)c1` (racemic), for which, in experiment [2], the Selectivity ratio was found to be 0.1. On the same count and under the same terms, the figure for `COc1cccc(NC(=O)NC2N=C(c3ccccc3)c3ccccc3N(C)C2=O)c1` (racemic) is 2. As for `COc1ccccc1NC(=O)NC1N=C(c2ccccc2)c2ccccc2N(C)C1=O` (racemic), the Selectivity ratio in experiment [2] was 0.5. `Cc1cccc(NC(=O)NC2N=C(c3ccccc3)c3ccccc3N(Cc3c[nH]cn3)C2=O)c1` (racemic): the Selectivity ratio in experiment [2] was 1. `Cc1cccc(NC(=O)NC2N=C(c3ccccc3)c3ccccc3N(Cc3ncc[nH]3)C2=O)c1` (racemic): the Selectivity ratio in experiment [2] amounted to 4. Take `O=C(CN1C(=O)C(NC(=O)Nc2ccc(Cl)cc2)N=C(c2ccccc2)c2ccccc21)NCc1ccccc1` (racemic): the Selectivity ratio in experiment [2] came out at 24. For `O=C(Nc1ccc(Cl)cc1)NC1N=C(c2ccccc2)c2ccccc2N(CC(=O)OCc2ccccc2)C1=O` (racemic), in experiment [2], the Selectivity ratio came to 30.

Take `O=C(Nc1ccc(Cl)cc1)NC1N=C(c2ccccc2)c2ccccc2N(Cc2nn[nH]n2)C1=O` (racemic): the Selectivity ratio in experiment [2] is 4.

Take `O=C(O)CN1C(=O)C(NC(=O)Nc2ccc(Cl)cc2)N=C(c2ccccc2)c2ccccc21` (racemic): the Selectivity ratio in experiment [2] was found to be 0.77.
